Read-outs that look alike come from different tables or passages of the source. A value given as a limit tells only on which side of the number the result lay.

The subject of one assay is ScHOS2 deletion mutant. Put plainly: Serial dilution sensitivity of yeast deletion strain to antifungal agents. The format is cell-based, S. cerevisiae. The following applies: FIGS. 4-12. From the text: (§1) Standard serial dilution techniques were used to determine sensitivity of yeast deletion strains to various antifungal agents.
Another assay concerns the target T1, recombinant Hos2p.V5His6 (Saccharomyces cerevisiae, UniProt P53096).
T1 construct: YGL194C/HOS2 from S. cerevisiae (residues 1-452 upstream the stop codon); made in house; host or cells: S. cerevisiae BY4742 or isogenic Δhos2 strain carrying pYES2.1.HOS2.V5His6 #7, galactose-induced
Put plainly: HDAC assay with purified recombinant Hos2p.V5His6 fractions. The format is biochemical, S. cerevisiae. The following applies: for IC50: read-out: IC50 (ug/ml). On the procedure: The induction of Hos2p.V5His6 expression by galactose was performed using either glucose or raffinose as the carbon source (pYES2.1 TOPO TA Expression Kit Manual, Invitrogen, cat. # K4150-01), Cell lysates were prepared from spheroplasts that had been generated from strains BY4742/pYES2.1.HOS2.V5His6 # 7 and Δhos2/pYES2.1.HOS2.V5His6 #7 grown in the presence or in the absence of galactose. Spheroplasts were prepared from cells that were grown in YEPD (BY4742, Δhos2), SC-URA+2% glucose or raffinose or SC-URA+1% glucose or raffinose+1% galactose (BY4742/pYES2.1.HOS2.V5His6 # 7 and Δhos2/pYES2.1.HOS2.V5His6 #7) by the lyticase method of Franzusoff et al. (1991). The collection of fractions containing or not Hos2pV5His6 was performed by IMAC using the H is GraviTrap Affinity Columns (GE Healthcare cat. # 11-033-99). Binding buffer was as recommended by the manufacturer, whereas three different elution buffers were used sequentially: 20 mM sodium phosphate+500 mM NaCl+100 mM, 250 mM or 500 mM imidazole, pH 7.4. Fractions were further desalted using PD-10 (GE Healthcare, cat. # 17-0851-01) and NAP-5 (GE Healthcare, cat. # 17-0853-02) desalting columns. Fractions that were eluted with the three different buffers containing 100, 250 or 500 mM imidazole, pH 7.4 and desalted were assayed for HDAC activity (see below). Only the corresponding fractions containing significant intrinsic HDAC activity (20 mM sodium phosphate+500 mM NaCl+250 mM imidazole) were kept for further studies.
Fractions containing the recombinant Hos2p.V5His6 were incubated for 2 h with or without HDAC inhibitor (0-20 μg/ml). The HDAC activity that was specifically associated with the recombinant Hos2p.V5His6 expressed following galactose induction was determined assuming that
FluoHos2p.V5His6 specific=Fluo+galactose−Fluo−galactose
where Fluo+galactose=HDAC activity associated with all HDACs copurified along with Hos2p.V5His6 Fluo+glucose=HDAC activity associated with all HDACs copurified in the absence of Hos2p.V5His6

In a further assay the test system is HosB. The following applies: cited from earlier work.
Assay [1] has as its system WT/ScHOS2 and Δhos2/ScHOS2. Put plainly: MIC80 testing (CLSI M27-A2), complementation of Δhos2 by recombinant ScHos2p. The format is cell-based, S. cerevisiae. To be noted: 72 hours, 30° C., FIG. 14. On the procedure: Minimum inhibitory concentration (MIC) testing was performed according to CLSI M27-A2 method for yeast testing using CSM-URA medium (Complete Synthetic Medium minus Uracile) containing either 2% raffinose or 1% raffinose+1% galactose as the carbon source. Itraconazole concentrations ranged from […]. Log-phase cells grown in CSM-URA+2% raffinose or CSM-URA+1% raffinose+1% galactose were inoculated at 5×10^3 cells/ml. The MIC80 of itraconazole was determined after 72 hours growth at 30° C.

A further assay deals with ScRPD3 deletion mutant. Put plainly: Serial dilution sensitivity of yeast deletion strain to antifungal agents. It is filed as cell-based, S. cerevisiae. To be noted: FIG. 3.
Text: as §1

In another assay the test system is A. nidulans Hda1 enzyme. To be noted: cited from earlier work.
The next assay has as its system C. albicans. To be noted: cited from earlier work.
The test system of a further assay is Candida glabrata. The following applies: cited from earlier work.

T1 sequence (P53096 whole entry, the tested form may be a part): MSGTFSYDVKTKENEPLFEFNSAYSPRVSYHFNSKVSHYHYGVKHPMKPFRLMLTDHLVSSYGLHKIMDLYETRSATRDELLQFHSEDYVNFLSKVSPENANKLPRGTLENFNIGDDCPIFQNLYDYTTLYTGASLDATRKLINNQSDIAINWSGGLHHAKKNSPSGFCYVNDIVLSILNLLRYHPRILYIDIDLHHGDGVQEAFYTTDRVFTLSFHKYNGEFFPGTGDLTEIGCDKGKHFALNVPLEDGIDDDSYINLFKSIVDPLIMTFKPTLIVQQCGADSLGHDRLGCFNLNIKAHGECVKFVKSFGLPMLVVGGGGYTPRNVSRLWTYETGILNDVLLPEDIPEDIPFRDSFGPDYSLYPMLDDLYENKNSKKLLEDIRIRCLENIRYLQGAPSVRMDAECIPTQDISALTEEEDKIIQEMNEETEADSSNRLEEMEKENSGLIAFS

As for `Nc1nc(=O)[nH]cc1F` [5-fluorocytosine], the “hypersensitivity of ScHOS2 deletion mutant to antifungal agent” value in the assay with ScHOS2 deletion mutant is listed as “not hypersensitive”.
The same measure, in the same setting: to `C[C@@H](c1ncncc1F)[C@](O)(Cn1cncn1)c1ccc(F)cc1F` [voriconazole] belongs “hypersensitive”; to `CN(C/C=C/C#CC(C)(C)C)Cc1cccc2ccccc12` [terbinazine], “not hypersensitive”.
With `O=C(Cc1ccc(CCCCc2ccccc2)cc1)NO` [Compound 4], the IC50 was about 14.1 µM at recombinant Hos2p.V5His6 (Hos2 from S. cerevisiae BY4742/HOS2.V5His6 grown in glucose (GAL1 repressed) or galactose (induced)), about 10.6 µM at recombinant Hos2p.V5His6 (Hos2 from S. cerevisiae BY4742/HOS2.V5His6 grown in raffinose (GAL1 repressed) or galactose (induced)) and about 15.9 µM at recombinant Hos2p.V5His6 (Hos2 from S. cerevisiae Δhos2/HOS2.V5His6 grown in glucose (GAL1 repressed) or galactose (induced)). The inhibition at 5 µg/mL at recombinant Hos2p.V5His6 (read-out: % inhibition at 5 μg/ml, Hos2 from S. cerevisiae BY4742/HOS2.V5His6 grown in glucose (GAL1 repressed) or galactose (induced), 5 μg/ml, 2 h) is 60.7%; on recombinant Hos2p.V5His6 (read-out: % inhibition at 5 μg/ml, Hos2 from S. cerevisiae BY4742/HOS2.V5His6 grown in raffinose (GAL1 repressed) or galactose (induced), 5 μg/ml, 2 h), 61.2%; on recombinant Hos2p.V5His6 (read-out: % inhibition at 5 μg/ml, Hos2 from S. cerevisiae Δhos2/HOS2.V5His6 grown in glucose (GAL1 repressed) or galactose (induced), 5 μg/ml, 2 h), 55.2%; at recombinant Hos2p.V5His6 (read-out: inhibition of purified Hos2 protein, 5 ug/ml, summary of Table 1) it was over 60%.
Regarding `C[C@@H]([C@H](N)C(=O)N[C@H](C(=O)O)[C@H]1O[C@@H](n2ccc(=O)[nH]c2=O)[C@H](O)[C@@H]1O)[C@H](O)c1ccc(O)cn1` [nikkomycin], the “hypersensitivity of ScHOS2 deletion mutant to antifungal agent” value in the assay with ScHOS2 deletion mutant was “not hypersensitive”.
As to `C[C@@H]1NC(=O)[C@H]2CCCN2C(=O)[C@H](CCCCCC(=O)[C@@H]2CO2)NC(=O)[C@@H](C)NC1=O` [HC toxin], the “sensitivity of the enzyme to the HDAC inhibitor” value with HosB is reported as “highly resistant”.
For `CCC(C)n1ncn(-c2ccc(N3CCN(c4ccc(OCC5COC(Cn6cncn6)(c6ccc(Cl)cc6Cl)O5)cc4)CC3)cc2)c1=O` (stereo not drawn) [itraconazole], the “difference in sensitivity (MIC80) between WT/ScHOS2 and Δhos2/ScHOS2” value in assay [1] (expression of Hos2 induced by galactose) came out at 2 fold; in assay [1] (grown in the presence of raffinose), 4 fold.
In the case of `OC(Cn1cncn1)(Cn1cncn1)c1ccc(F)cc1F` [fluconazole], the “hypersensitivity of ScHOS2 deletion mutant to antifungal agent” value in the assay with ScHOS2 deletion mutant was “hypersensitive”. Further, in the assay on ScRPD3 deletion mutant, the “hypersensitivity of ScRPD3 deletion mutant to antifungal agent” value is on record as “not hypersensitive”.
As to `CC(Cc1ccc(C(C)(C)C)cc1)CN1C[C@@H](C)O[C@@H](C)C1` (stereo partly drawn) [fenpropimorph], in the assay on ScHOS2 deletion mutant, the “hypersensitivity of ScHOS2 deletion mutant to antifungal agent” value is on record as “hypersensitive”.
`CC(/C=C/C(=O)NO)=C\[C@@H](C)C(=O)c1ccc(N(C)C)cc1` [TSA, trichostatin A]: the “sensitivity of the enzyme to the HDAC inhibitor” value in the assay on HosB was “highly resistant”; in the assay with A. nidulans Hda1 enzyme, “highly sensitive”. For the same compound, the “ability to enhance the sensitivity to azole antifungal agents” value with C. albicans is on record as “able to enhance the sensitivity”; in the assay with Candida glabrata it was “not found to enhance the sensitivity”.
With `CC(=O)N1CCN(c2ccc(OCC3COC(Cn4ccnc4)(c4ccc(Cl)cc4Cl)O3)cc2)CC1` (stereo not drawn) [ketoconazole], in the assay on ScHOS2 deletion mutant, the “hypersensitivity of ScHOS2 deletion mutant to antifungal agent” value is on record as “hypersensitive”. The “hypersensitivity of ScRPD3 deletion mutant to antifungal agent” value in the assay on ScRPD3 deletion mutant is “not hypersensitive”.
For the compound `C[C@@H]1[C@H](O)[C@@H](C)/C=C/C=C/C=C/C=C/C=C/C=C/C=C/[C@H](O[C@@H]2O[C@H](C)[C@@H](O)[C@H](N)[C@@H]2O)C[C@@H]2O[C@](O)(C[C@@H](O)C[C@@H](O)[C@H](O)CC[C@@H](O)C[C@@H](O)CC(=O)O[C@H]1C)C[C@H](O)[C@H]2C(=O)O` [Amphotericin B], in the assay on ScHOS2 deletion mutant, the “hypersensitivity of ScHOS2 deletion mutant to antifungal agent” value is given as “not hypersensitive”.

The record behind these values is patent US20080139673A1, “POTENTIATION OF ANTIFUNGAL COMPOUNDS” (MethylGene Inc., priority 2006, published 2008).
